Patent publication US8628961B2, “Small molecule antagonists of phosphatidylinositol-3,4,5-triphosphate (PIP3) and uses thereof” (Tufts University, priority 2010, dated 2014)

Legend:
[1] = tested on: PTEN-deficient U87MG cells; assay: Sytox cell death assay, U87MG re-expressing wild-type or R130M mutant PTEN; assay type: cell-based, human; conditions: 25, 50, 100 μM, 48 hr
Protocol: After treatment with 25, 50, or 100 μM PIT-1 for 48 hr, cell death was analyzed using Sytox cell death assay.
Based on the critical role of PIP3-dependent […] signaling in the regulation of cell survival, the effect of PIT-1 on the cancer cell viability was tested. Cancer cells were seeded into 96-well plates (white plates for ATP assay; black plates for fluorescent assay; clear plates for MTS assay) at the density of 5-10×10^3 cells per well in 100 μl of the appropriate media. Compounds were added at a series of concentrations and incubated for different times. For the ATP assay, a luminescence-based commercial kit (CellTiter-Glo, Promega, Madison, Wis.) was used. Thirty microliters of cell lysis/ATP detection reagent was added to each well, mixed for 10 min at room temperature, and the luminescence was measured using a Wallac Victor 3 plate reader (Perkin-Elmer, Wellesley, Mass.). […] Twenty microliters of the combined MTS/PMS solution was added into each well, incubated for 4 hr at 37° C., and the absorbance at 490 nm was measured using a Wallac Victor 3 plate reader. For the Sytox cell death assay, measuring loss of plasma membrane integrity, cells were incubated with 1 μM Sytox Green reagent (Molecular Probes, Eugene, Oreg.) for 30 min at 37° C. and the fluorescence intensity was measured using Wallac Victor 3 plate reader with excitation at 485 nm and emission at 545 nm. […]

[2] = tested on: Bax/Bak double knockout cells; assay: Cell killing in Bax/Bak double knockout versus wild-type cells; assay type: cell-based, mouse
Protocol: Human and mouse cancer cell lines (U87MG, SUM159, A549, MDA-MB-231, 4T1, B16-F10) and human umbilical vein endothelial cells (HUVEC) were purchased from the American Type Culture Collection (Rockville, Md., USA). Mouse adult lung fibroblasts (Akt-deficient and Akt1-expressing) were a generous gift of Dr. Philip Tsichlis (Tufts University). Maroulakou I et al. (2007) Cancer Res 67:167-77. Bax/Bak double knockout mouse embryonic fibroblasts (Wei M C et al. (2001) Science 292:727-30) and matched wild-type cells were a generous gift of Dr. Stanley Korsmeyer (Dana-Farber Cancer Center). B16-F10, U87MG, 4T1, A549, MDA-MB-231 and fibroblast cells were cultured in DMEM medium with 10% fetal bovine serum (FBS). SUM159 was maintained in Ham's F-12 medium with 5% FBS, 5 μg/ml insulin, and 1 μg/ml hydrocortisone. HUVEC cells were cultured in M199 medium with 20% FBS, 20 μg/ml ECGS, and 50 μg/ml heparin. All media were supplemented with 100 units/ml penicillin, 100 μg/ml streptomycin, and 2 mM glutamine. All cells were cultured in a humidified atmosphere of 95% air and 5% CO2 at 37° C.
Since PI3K/PIP3/Akt signaling plays a critical role in the inhibition of apoptosis (Datta S R et al. (1999) Genes Dev 13:2905-27), the possibility that PITs induce apoptosis was examined. […] Proapoptotic Bcl-2 family members Bax and Bak are important mediators of apoptosis. Wei M C et al. (2001) Science 292:727-30. […]

[3] = tested on: U87MG cells; assay: Sensitization of U87MG cells to TRAIL, ATP assay; assay type: cell-based, human; conditions: 10 ng/ml TRAIL, 48 hr
Protocol: FIG. 10 is a bar graph depicting that PITs, as well as Akt inhibitor VIII, sensitize U87MG cells to killing by TRAIL. U87MG cells were incubated with 50 μM PIT-1, PIT-2, PIT-1i-1 or 10 μM Akt inhibitor VIII in the presence or absence of 10 ng/ml TRAIL for 48 hr, followed by cell viability analysis using ATP assay.
Upregulation of PI3K/Akt signaling is an important mechanism of chemoresistance of cancer cells. Blume-Jensen P et al. (2001) Nature 411:355-65; Osaki M et al. (2004) Apoptosis 9:667-76. […] Puduvalli V K et al. (2005) Apoptosis 10:233-43 TRAIL represents a particularly promising anti-cancer agent due to its intrinsic selectivity towards cancer cells which is associated with the expression of the decoy receptors by many (but not all) normal cells. Abe K et al. (2000) Ann NY Acad Sci 926:52-63. […] Oka N et al. (2005) Cancer Res 65:7546-53.

O=C(NC(=S)Nc1cc([N+](=O)[O-])cc(Cl)c1O)c1ccccc1 [PIT-1]
toxicity in U87MG lacking PTEN activity versus wild-type PTEN [1]: more pronounced in PTEN-deficient U87MG cells lacking PTEN activity | killing of Bax/Bak double knockout compared with wild-type cells [2]: reduced in Bax/Bak double knockout cells | sensitization of U87MG cells to killing by TRAIL [3]: substantially sensitized U87MG cells to killing by TRAIL
